In one data set the test system is chondrocyte cultures. As to the kind of experiment: Toxicity in chondrocyte cultures. It counts as cell-based. As for the experimental part: In a clinical setting, treatment with exogenous growth factors would present a difficult and expensive strategy. To address this, our group designed a high throughput screen to identify small molecule modulators of chondrogenic differentiation based on the prevention of the hypertrophy-associated marker collagen X (COLX). […] Importantly, the stimulatory effect of CRMs on p-STAT3 and c-MYC was reversible; protein levels of both p-STAT-3 and c-MYC decreased 48 hours after CRM-398 or -423 withdrawal (data not shown). Identification of such compounds can not only allow us to control differentiation of chondrocytes, but also manipulate the expression of STAT3 and c-MYC to achieve rejuvenation of adult chondrocytes. CRM-398 and -423 can be tested in parallel with LIF and their effects on adult articular chondrocyte activation can be assessed as described herein.

The subject of a further data set is BMPR1B+ chondrocytes. As to the kind of experiment: Retention of BMPR1B+ chondrocytes in culture (flow cytometry). It counts as cell-based, pig. Here is the method:
FIG. 35. RCGD 423 Preserves BMPR1B+ Chondrocytes in Culture. Adult pig chondrocytes were cultured in the presence of various cytokines or RCGD 423 and the number of cells expressing BMPR1B were quantitated using flow cytometry. Know mitogens for cartilage, including PDGF-BB and FGF2, promoted dramatic loss of BMPR1B^+ cells. In contrast, RCGD 423 and LIF acted to maintain cells with the BMPR1B+ phenotype.
BMPR1B+LIFR+ human adult articular chondrocytes were sorted using FACS and deposited in 96-well culture plates at density 10,000 cells per well in DMEM/F12 culture medium (Invitrogen) supplemented with 1% FBS. Growth factors or RCGD 423 were added at the time of plating. After 1, 3 and 7 days cultures were re-analyzed with FACS using an antibody against BMPR1B.
A general note: A flow cytometer gives signals particle by particle.

A further data set has as its system adult chondrocytes. Nature of the data set: Collagen 2 production by adult chondrocytes. The format is cell-based. The settings on record: compared with control (DMSO). The source says:
FIGS. 21A-21B. […] (FIG. 21A) cell sorting results for isotype (left), BMPR18^neg (middle), and BMPR18+ cells (right). (FIG. 21B) CRM-423 (right panel) stimulates collagen 2 product by adult chondrocytes compared with control (DMSO, left panel).
Cmpd 423 stimulates collagen 2 product by adult chondrocytes (FIG. 21B).

The subject of the next data set is pSTAT3 and MYC. Nature of the data set: Duration of pSTAT3/MYC induction after wash out or release from PLGA microspheres. The format is cell-based, pig. The settings on record: drug applied 24 hours, then washed out. As for the experimental part: FIGS. 31A-31D. […] (FIG. 31A) Experiments were conducted to test the tissue reparative function of compounds disclosed herein. FIG. 31A depicts histograms of amounts of glycosaminoglycans (GAGs) and collagen 2 observed under control conditions and after administration of RCGD 423. (FIG. 31B) The duration of the effects elicited by RCGD 423 was determined by applying the drug for 24 hours and then washing it out. Protein levels of pSTAT3 and MYC were determined at the indicated time points after wash out; histone H3 was used as a loading control. (FIG. 31C) Protein levels of MYC and pSTAT3 in adult pig articular chondrocytes were used to determine the time frame in which release of RCGD 423 from PLGA microspheres reaches efficacious levels. Supernatant from drug-loaded PLGA microspheres was harvested at the indicated intervals and applied to pig chondrocytes. Histone H3 was used as a loading control. (FIG. 31D) Repair in a tissue context was assessed by removing small explants from a biopsy punch of adult pig articular cartilage. Matrigel with or without RCGD 423-loaded microspheres was applied to the defects. Safranin O staining was performed on sections of explants following 5 weeks of culture; border of defect and intact tissue is shown.
We also tested whether RCGD 423 could initiate healing of small defects generated on the surface of intact articular cartilage. […]

The next data set deals with human fetal chondrocytes. Nature of the data set: Chondrocyte terminal differentiation (COLX expression, alkaline phosphatase) in human fetal chondrocytes. The format is cell-based. The source says: From a therapeutic and regulatory standpoint, small molecules represent a highly attractive modality for manipulating cell biology. To this end, we conducted a high throughput screen to discover small molecules that regulate chondrocyte differentiation. As a readout for the screen, we chose mice carrying a transgenic mCherry reporter (Maye et al., 2011) for expression of Col10a1 (COL10). COL10 expression, along with alkaline phosphatase (AP) levels, increases during later stages of chondrocyte differentiation, concomitant with withdrawal from the cell cycle. […] To conduct the screen, total limb cells were isolated from Col10a1-mCherry transgenic embryos and cultured in the presence of BMP-4, a driver of chondrocyte hypertrophy (Wu et al., 2013); 170,000 compounds were assayed for their ability to decrease the mCherry signal in live cells under these conditions (FIG. 27A). Out of this first dataset, 469 molecules were selected for confirmatory screening. This number was further reduced to 75 verified compounds that blocked increases in mCherry signal (FIG. 27B). Additional vetting led to the selection of Regulator of Cartilage Growth and Differentiation (RCGD) 423 as the primary compound for continued characterization. The ability of RCGD 423 to inhibit COL10 expression in human cells was confirmed, and AP activity was employed as a supplemental readout of chondrocyte differentiation.
Cells were fixed with 3.7% formaldehyde and stained for alkaline phosphatase activity with SigmaFast 5-bromo-4-chloro-3-indolyl phosphate/4-nitro blue tetrazolium (BCIP/NBT) (Sigma Aldrich, St. Louis, Mo.) according to the manufacturer's protocol.

Take `Brc1ccc(Nc2nc(-c3ccccc3)cs2)cc1` [RCGD 423, N-(4-Bromophenyl)-4-phenyl-1,3-thiazol-2-amine]: the “toxicity in chondrocyte cultures” value in the data set on chondrocyte cultures is on record as “no toxicity”. For the same compound, in the data set with BMPR1B+ chondrocytes, the “BMPR1B+ chondrocytes in culture” value is reported as “helped maintain”. Besides, in the data set with adult chondrocytes, the “collagen 2 production by adult chondrocytes” value is recorded as “stimulates”. Moreover, the “time after drug removal at which increases in pSTAT3 and MYC are observed” value in the data set on pSTAT3 and MYC is “up to 7 days”. Moreover, the “COL10 expression in human cells” value in the data set on human fetal chondrocytes is on record as “inhibit”. Moreover, the “alkaline phosphatase (AP) levels” value with human fetal chondrocytes (fetal cartilage treated with BMP-4) is reported as “significantly reduced”. In addition, the “terminal differentiation (COLX expression)” value with human fetal chondrocytes (human fetal chondrocytes, 1 μM) is “significant inhibition”.
